Measurements published in patent US12201696B2, “Multiplexed analysis of materials for tissue delivery” (Georgia Tech Research Corporation, priority 2017, dated 2025).

Test system: HEK293 cells stably transduced with a CMV-lox-GFP-stop-lox-RFP construct
Assay: Endocytosis inhibition in LGSL-RFP HEK cells
Format: cell-based
Conditions: for effect on in vitro endocytosis and functional Cre mRNA delivery of ATL1 and ATL2: LGSL-RFP cells
Method: For experiments shown in FIG. 1, cells were incubated with endocytosis inhibitors 1 hour prior to incubation with pooled LNPs against clathrin-mediated endocytosis (chlorpromazine, 100 μM, Alfa Aesar), caveolae-mediated endocytosis (genistein, 100 μM, TCI America), and macropinocytosis (5-(N-Ethyl-N-isopropyl) Amiloride, EIPA, 50 μM, Toronto Research Chemicals).
To determine whether FIND could simultaneously measure delivery mediated by many nanoparticles, 54 chemically distinct LNPs were formulated (Table 5, FIGS. 4J-4O); each carried Cre mRNA and a unique DNA barcode. The LNPs were administered to HEK cells in a 6 well plate using an mRNA dose of 10, 100, or 1000 ng/well, and a mRNA: DNA barcode mass ratio of 10:1. A dose-dependent increase in RFP^+ cells was observed, with over 80% of the cells RFP^+ at 1000 ng 72 hours after transfection (FIG. 1G). Barcodes were deep sequenced at all 3 doses, reasoning that LNPs which delivered barcodes at the lowest dose (4% RFP^+ cells) would also deliver LNPs at the middle dose (20% RFP^+ cells). There was a strong relationship between normalized delivery at these 2 doses (FIG. 1H). Cells treated with 1000 ng mRNA were also sequenced. As expected, the relationship between 1000 ng and either 10 or 100 ng weakened, since at this dose, nearly all the cells (>80% were RFP^+), leading to system saturation (FIG. 4P-4Q). Finally, it was evaluated whether the number of RFP^+ cells decreased when cells were pre-treated with Chlorpromazine, Genistein, or Ethylisopropyl amiloride (EIPA), which inhibit clathrin-, caveolin-, and macropinocytosis-mediated endocytosis, respectively. Compared to cells that were not treated with inhibitors, the number of RFP^+ cells decreased by 40-60%, recapitulating previous LNP results (Sahay, Querbes et al. 2013, Dahlman, Barnes et al. 2014, Wittrup, Ai et al. 2015) (FIG. 1I).
Like all high throughput screens, LNPs identified by FIND need to be validated. ATL1 and ATL2 (FIG. 3A, 3B-3E) were selected. […] (FIG. 6C-6F).

Structure (SMILES)	effect on in vitro endocytosis and functional Cre mRNA delivery of ATL1 and ATL2	inhibition at 100 µM (Homo sapiens, HEK293, pre-treatment 1 hour before pooled 54 LNPs (100 ng total mRNA), chlorpromazine 100 μM, genistein 100 μM, EIPA 50 μM, read-out: decrease in number of RFP+ cells compared to cells not treated with inhibitors) [%]
O=c1c(-c2ccc(O)cc2)coc2cc(O)cc(O)c12 [Genistein, genistein]	inhibited	–
CN(C)CCCN1c2ccccc2Sc2ccc(Cl)cc21 [Chlorpromazine, chlorpromazine]	inhibited	40 to 60
CCN(c1nc(N)c(C(=O)N=C(N)N)nc1Cl)C(C)C [EIPA, 5-(N-Ethyl-N-isopropyl) Amiloride]	only impacted LNP uptake	–
